One assay relates to COLO 205. In words: Cytotoxicity against human COLO205 cells at 50 ug/mL. It is filed as functional, cell-based.
The test system of the next assay is OVCAR-3. In words: Cytotoxicity against human OVCAR-3 cells at 50 ug/mL. In kind it is functional, cell-based.

Activity calls are given as the source filed them. The calls are words filed in the database; no cut-off is given here. Peptide text beside a SMILES is read from it.

In the case of `C[C@@H]1NC(=O)[C@H]([C@@H](C)O)NC(=O)[C@H](Cc2ccc(O)cc2)NC(=O)[C@@H]2CCCN2C(=O)[C@H](Cc2ccc(O)cc2)NC(=O)[C@H](CCCNC(=N)N)NC(=O)[C@@H]2CCCN2C(=O)[C@H](CC(N)=O)NC1=O` (cyclo(ANPRYPYT)), the outcome in the assay on COLO 205 and with OVCAR-3 was inactive.

The record behind these values is ChEMBL document CHEMBL1146508, “Cyclonellin, a new cyclic octapeptide from the marine sponge Axinella carteri” (J Nat Prod, 2004).
